Reference: ChEMBL document CHEMBL5247632, “Current approaches and strategies to identify Hedgehog signaling pathway inhibitors for cancer therapy” (Eur J Med Chem, 2022)
Blank lines part the entries; values can stand above or below the molecule they belong to. Numbered stars: 1 amine (or outer) side, 2 acyl side, 3 side chain; on linkers, the order of the positions; unused ones are H or OH. Bridge positions count the residues as written; N and C are the ends. Peptide text beside a SMILES is read from it. CH2CH2 = C(C[*:2])[*:1]

Tests used:
[1] = Inhibition of hedgehog signalling in Shh-stimulated mouse NIH3T3 cells coexpressing firefly luciferase gene under control of Gli-promoter and renilla gene under control of constitutive promoter assessed as inhibition of Shh-N induced luciferase expression by dual luciferase reporter assay; format: cell-based
Sonic hedgehog protein = Sonic hedgehog protein (Homo sapiens, UniProt Q15465); test: Binding affinity to Shh (unknown origin) assessed as dissociation constant
[2] = Inhibition of hedgehog signalling pathway in mouse NIH3T3 cells by Gli-Bla reporter assay; format: cell-based
[3] = Inhibition of hedgehog signalling pathway in mouse Shh Light II cells expressing Gli-luciferase reporter gene assessed as inhibition of SHHN-induced luciferase activity; format: cell-based
Protein smoothened = Protein smoothened (Homo sapiens, UniProt Q99835, D473H); test: Antagonist activity at SMO D473H mutant (unknown origin) expressed in mouse TM3 cells coexpressing Gli-luc reporter gene assessed as inhibition of Hh-Ag1.5 induced Gli luciferase activity incubated for 48 hrs by luminescence assay; format: cell-based
Chain of Protein smoothened (Q99835 28-787 D473H limits assumed): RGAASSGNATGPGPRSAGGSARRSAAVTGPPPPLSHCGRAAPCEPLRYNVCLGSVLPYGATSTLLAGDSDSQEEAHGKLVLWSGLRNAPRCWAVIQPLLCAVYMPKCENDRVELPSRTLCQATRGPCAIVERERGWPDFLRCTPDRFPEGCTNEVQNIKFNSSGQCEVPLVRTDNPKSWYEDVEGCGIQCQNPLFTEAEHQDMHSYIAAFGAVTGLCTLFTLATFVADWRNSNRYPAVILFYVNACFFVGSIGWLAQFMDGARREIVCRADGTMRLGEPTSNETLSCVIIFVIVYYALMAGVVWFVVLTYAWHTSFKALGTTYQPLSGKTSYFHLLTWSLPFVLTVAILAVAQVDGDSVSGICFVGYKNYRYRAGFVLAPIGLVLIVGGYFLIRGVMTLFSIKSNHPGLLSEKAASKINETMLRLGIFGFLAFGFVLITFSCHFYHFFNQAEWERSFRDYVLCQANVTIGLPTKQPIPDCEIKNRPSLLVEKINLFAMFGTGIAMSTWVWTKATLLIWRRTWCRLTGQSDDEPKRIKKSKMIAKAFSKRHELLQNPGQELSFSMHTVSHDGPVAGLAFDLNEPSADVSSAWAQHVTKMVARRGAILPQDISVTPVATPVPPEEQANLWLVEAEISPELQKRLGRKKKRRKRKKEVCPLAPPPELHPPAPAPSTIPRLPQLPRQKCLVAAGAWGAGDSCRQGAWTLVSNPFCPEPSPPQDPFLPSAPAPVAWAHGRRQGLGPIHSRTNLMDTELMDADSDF

Chain of Sonic hedgehog protein (Q15465 24-197 limits assumed): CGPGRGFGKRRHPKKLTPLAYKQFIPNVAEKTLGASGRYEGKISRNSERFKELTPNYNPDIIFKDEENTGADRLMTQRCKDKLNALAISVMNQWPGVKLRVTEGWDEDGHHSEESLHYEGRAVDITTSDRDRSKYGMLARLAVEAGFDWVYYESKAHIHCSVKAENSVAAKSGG

IC50 [1]: 250 nM
Kd (Sonic hedgehog protein): 170 nM
SMILES: CSCC[C@@H]1NC(=O)[C@H](C)NC(=O)[C@H](CCC(=O)O)NC(=O)[C@@H](NC(=O)[C@H](Cc2c[nH]c3ccccc23)NC(=O)[C@H](CO)NC(=O)[C@H](CC(C)C)NC(=O)[C@@H](NC(C)=O)[C@@H](C)O)Cc2ccc(cc2)OCCSC[C@@H](C(=O)N[C@H](C(=O)N[C@@H](CC(=O)O)C(=O)O)[C@@H](C)O)NC(=O)[C@H](CCSC)NC(=O)[C@H](CC(=O)O)NC1=O (Ac-TLSWYEAMDMCTD-OH; linker 5-11 via CH2CH2)

IC50 [2]: 7 nM
SMILES: CS(=O)(=O)c1ccc(C(=O)Nc2ccc(Cl)c(-c3ccccn3)c2)c(Cl)c1 [VISMODEGIB]

IC50 [3]: 500 nM
SMILES: CCC(C)n1ncn(-c2ccc(N3CCN(c4ccc(OCC5COC(Cn6cncn6)(c6ccc(Cl)cc6Cl)O5)cc4)CC3)cc2)c1=O (stereo not given) [ITRACONAZOLE]

IC50 (Protein smoothened): 50 nM
SMILES: CC1C(=O)N(c2ccc(Cl)cc2)C(=O)N1Cc1ccccc1 (stereo not given)
